Source: patent US7196110B2, “N-substituted tricyclic 3-aminopyrazoles as inhibitors for the treatment of cell proliferative disorders” (Janssen Phamaceutica N.V., priority 2002, dated 2007)
Where two headings read alike, the source gives them in different places.

Key:
[1] = target: T1, PDGF-receptor beta enzyme comprising the tyrosine kinase domain (Homo sapiens, UniProt P09619); assay: Inhibition of PDGF-receptor kinase activity (cell-free, PLC1 peptide, 33P Flashplate); type: biochemical; conditions: PDGF-R kinase activity; for inhibition at 10 µM: compound at 10 uM, read-out: Percent Inhibition @ 10 uM; for IC50: read-out: IC50
T1 construct: from amino acid 545 to 1106 of GenBank Access NO: AAA36427
T1 sequence (P09619 545-1106): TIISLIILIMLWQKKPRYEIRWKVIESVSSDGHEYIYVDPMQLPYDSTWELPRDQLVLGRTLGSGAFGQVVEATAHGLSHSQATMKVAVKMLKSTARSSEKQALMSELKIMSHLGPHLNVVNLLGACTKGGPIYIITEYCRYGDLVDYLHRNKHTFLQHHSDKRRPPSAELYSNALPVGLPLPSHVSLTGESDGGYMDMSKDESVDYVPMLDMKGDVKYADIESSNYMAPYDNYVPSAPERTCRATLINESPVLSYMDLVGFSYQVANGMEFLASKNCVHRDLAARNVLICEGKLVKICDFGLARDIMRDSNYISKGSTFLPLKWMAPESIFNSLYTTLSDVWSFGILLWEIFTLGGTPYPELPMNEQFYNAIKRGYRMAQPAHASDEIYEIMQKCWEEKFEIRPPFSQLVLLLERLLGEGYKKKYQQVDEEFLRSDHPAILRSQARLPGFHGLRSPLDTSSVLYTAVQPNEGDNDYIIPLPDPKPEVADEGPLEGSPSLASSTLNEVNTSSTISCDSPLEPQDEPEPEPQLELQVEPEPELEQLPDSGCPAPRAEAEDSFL
Outline: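 Recombinant kinase domain (aa 545–1106) phosphorylated a biotinylated PLC1 peptide with 5 μM ATP plus 33P-γ-ATP, in Tris pH 8, MgCl2, Na3VO4 and 1 mM DTT, for 60 min at 30 °C. Retained 33P was counted after washing. IC50 is the concentration halving activity versus no-inhibitor reactions.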

LoVo (colon) = assay: Anti-cell proliferation in tumor cells (14C-thymidine incorporation), LoVo; type: cell-based; conditions: Homo sapiens, read-out: IC50 on cell proliferation, LoVo
Experimental: (§1) The effect of compounds of the invention on cell proliferation in various tumor cells was tested based on incorporation of ^14C-thymidine into DNA of cells.
(§2) Similar to those described above in 3a, except that different cells, cell growth medium, and growth supplements were used. Human tumor cell lines derived from various human tissue origins (LoVo from colon, H460 from lung, T47D from breast, PC3 from prostate, A375 from melanoma, AsPC1 from pancreas) were obtained from the American Type Culture Collection (ATCC) and cultured under specified conditions required for each cell type, as provided by ATCC. Complete medium was obtained from Cellgro: Iscove's medium with 10% Fetal Bovine Serium (FBS) (Mediatech, Inc., Herndon, Va. 20171, Cat. No. 10-016-CV).
(§3) Tumor cells were seeded at approx. 3000–8000 cells per well in a volume of 100 μl of complete medium. Cells were grown for 24 hours in complete medium, and 1 μl of test compound was serially diluted in 100% DMSO and added to each well. For maximum growth control wells, only 1 μl of 100% DMSO was added. After 24 hours incubation, 20 μl of ^14C-thymidine master mix was added to each well and the ^14C-thymidine master mix was pepared according to the following regimen:
(§4) Cells were incubated for an additional 24 hours at 37° C. in medium containing test compound and ^14C-thymidine. Then, the reaction mixture was discarded and the plate was washed 2 times each with 200 μl PBS. Subsequently, each well on the plate was filled with 200 μl of PBS. The top of the plate was sealed with transparent plate sealer and white plate backing sealers were applied to the bottom of plates. The retained ^14C inside each well was measured using a Packard TopCount.
(§5) In order to test the potency of inhibition of the present compound, IC50 of an individual compound on the inhibition of tumor cell line proliferation was measured using the above procedure. As used herein, said IC50 refers to the concentration of the test compound at which the amount of tumor cell proliferation is reduced by one-half as compared to the maximum growth control wells without the compound.

T47D (breast) = assay: Anti-cell proliferation in tumor cells (14C-thymidine incorporation), T47D; type: cell-based; conditions: Homo sapiens, read-out: IC50 on cell proliferation, T47D
Experimental: as §1, §2, §3, §4, §5

PC3 (prostate) = assay: Anti-cell proliferation in tumor cells (14C-thymidine incorporation), PC3; type: cell-based
Experimental: as §1, §2, §3, §4, §5

A375 (melanoma) = assay: Anti-cell proliferation in tumor cells (14C-thymidine incorporation), A375; type: cell-based
Experimental: as §1, §2, §3, §4, §5

AsPC1 (pancreas) = assay: Anti-cell proliferation in tumor cells (14C-thymidine incorporation), AsPC1; type: cell-based
Experimental: as §1, §2, §3, §4, §5

[2] = Homo sapiens, PC-3; read-out: IC50 on cell proliferation, PC3
[3] = Homo sapiens, A-375; read-out: IC50 on cell proliferation, A375
[4] = Homo sapiens, ASPC1; read-out: IC50 on cell proliferation, AsPC1

SMILES: COC(=O)c1cccc(Nc2[nH]nc3c2Cc2cc(OC)c(OC)cc2-3)c1 [Compound 11, 3-(6,7-Dimethoxy-2,4-dihydro-indeno[1,2-c]pyrazol-3-ylamino)-benzoic acid methyl ester]
- inhibition at 10 µM [1]: 97%
- IC50 [1]: 15.7 nM
- IC50 (LoVo (colon)): 2 nM
- IC50 (T47D (breast)): 7 nM
- IC50 (PC3 (prostate); [2]): 14 nM
- IC50 (A375 (melanoma); [3]): 5 nM
- IC50 (AsPC1 (pancreas); [4]): 30 nM

SMILES: COc1cc2c(cc1OC)-c1n[nH]c(Nc3ccccc3F)c1C2 [Compound 12, (6,7-Dimethoxy-2,4-dihydro-indeno[1,2-c]pyrazol-3-yl)-(2-fluoro-phenyl)-amine]
- inhibition at 10 µM [1]: 76%
- IC50 [1]: 56 nM
- IC50 (LoVo (colon)): 11 nM
- IC50 (T47D (breast)): 31 nM
- IC50 (PC3 (prostate); [2]): 13 nM
- IC50 (A375 (melanoma); [3]): 11 nM
- IC50 (AsPC1 (pancreas); [4]): 77 nM

SMILES: COc1cc2c(cc1OC)-c1n[nH]c(Nc3cccc(F)c3)c1C2 [Compound 14, (3-Fluoro-phenyl)-(6,7-dimethoxy-2,4-dihydro-indeno[1,2-c]pyrazol-3-yl)-amine]
- inhibition at 10 µM [1]: 108%
- IC50 [1]: 1.7 nM
- IC50 (LoVo (colon)): 11 nM
- IC50 (T47D (breast)): 32 nM
- IC50 (PC3 (prostate); Homo sapiens, PC-3, read-out: IC50 on cell proliferation, PC3): 20 nM
- IC50 (A375 (melanoma); Homo sapiens, A-375, read-out: IC50 on cell proliferation, A375): 7 nM
- IC50 (AsPC1 (pancreas); Homo sapiens, ASPC1, read-out: IC50 on cell proliferation, AsPC1): 592 nM

SMILES: Cc1ccc2c(c1)-c1n[nH]c(Nc3ccccc3)c1C2 [Compound 22, (7-Methyl-2,4-dihydro-indeno[1,2-c]pyrazol-3-yl)-phenyl-amine]
- inhibition at 10 µM [1]: 96%
- IC50 [1]: 45 nM
- IC50 (LoVo (colon)): 13400 nM
- IC50 (T47D (breast)): 381 nM
- IC50 (PC3 (prostate); [2]): 49500 nM
- IC50 (A375 (melanoma); [3]): 11600 nM
- IC50 (AsPC1 (pancreas); [4]): > 10000 nM

SMILES: COc1cc2c(cc1OC)-c1n[nH]c(Nc3cccnc3)c1C2 [Compound 30, (6,7-Dimethoxy-2,4-dihydro-indeno[1,2-c]pyrazol-3-yl)-pyridin-3-yl-amine]
- inhibition at 10 µM [1]: 107%
- IC50 [1]: 16 nM
- IC50 (LoVo (colon)): 423 nM
- IC50 (T47D (breast)): 8200 nM
- IC50 (PC3 (prostate); [2]): 175 nM
- IC50 (A375 (melanoma); [3]): 507 nM
- IC50 (AsPC1 (pancreas); [4]): > 10000 nM

SMILES: COc1ccc2c(c1)-c1n[nH]c(Nc3ccccc3)c1C2 [Compound 39, (7-Methoxy-2,4-dihydro-indeno[1,2-c]pyrazol-3-yl)-phenyl-amine]
- inhibition at 10 µM [1]: 92%
- IC50 (T47D (breast)): > 10000 nM
- IC50 (PC3 (prostate); [2]): > 10000 nM
- IC50 (A375 (melanoma); [3]): > 50000 nM
- IC50 (AsPC1 (pancreas); [4]): > 10000 nM

SMILES: COc1cc2c(cc1OC)-c1n[nH]c(NCc3ccccc3)c1C2 [Compound 63, Benzyl-(6,7-dimethoxy-2,4-dihydro-indeno[1,2-c]pyrazol-3-yl)-amine]
- inhibition at 10 µM [1]: 94%
- IC50 [1]: 191 nM
- IC50 (LoVo (colon)): 2400 nM
- IC50 (T47D (breast)): 2600 nM
- IC50 (PC3 (prostate); [2]): 6120 nM
- IC50 (A375 (melanoma); [3]): 2840 nM
- IC50 (AsPC1 (pancreas); [4]): 10300 nM

SMILES: COc1cccc(Nc2[nH]nc3c2Cc2cc4c(cc2-3)OCO4)c1 [Compound 97, (2,9-Dihydro-5,7-dioxa-2,3-diaza-cyclopenta[a]-s-indacen-1-yl)-(3-methoxy-phenyl)-amine]
- inhibition at 10 µM [1]: 91%
- IC50 [1]: 54 nM
- IC50 (LoVo (colon)): 225 nM
- IC50 (T47D (breast)): 622 nM
- IC50 (PC3 (prostate); [2]): 1680 nM
- IC50 (A375 (melanoma); [3]): 362 nM
- IC50 (AsPC1 (pancreas); [4]): 5670 nM

SMILES: CN1CCN(c2ccc3c(c2)Cc2c-3n[nH]c2Nc2cccc(Br)c2)CC1 [Compound 122, (3-Bromo-phenyl)-[6-(4-methyl-piperazin-1-yl)-2,4-dihydro-indeno[1,2-c]pyrazol-3-yl]-amine]
- inhibition at 10 µM [1]: 70%
- IC50 [1]: 16.2 nM
- IC50 (LoVo (colon)): 3840 nM
- IC50 (T47D (breast)): 10500 nM
- IC50 (PC3 (prostate); [2]): 6340 nM
- IC50 (A375 (melanoma); [3]): 14400 nM
- IC50 (AsPC1 (pancreas); [4]): > 10000 nM

SMILES: COC(=O)c1cccc(Nc2[nH]nc3c2Cc2cc(OCCCN4CCCC4)c(OC)cc2-3)c1 [Compound 157, 3-[7-Methoxy-6-(3-pyrrolidin-1-yl-propoxy)-2,4-dihydro-indeno[1,2-c]pyrazol-3-ylamino]-benzoic acid methyl ester]
- inhibition at 10 µM [1]: 85%
- IC50 [1]: 7 nM
- IC50 (LoVo (colon)): 2140 nM
- IC50 (T47D (breast)): 1900 nM
- IC50 (PC3 (prostate); [2]): 3130 nM
- IC50 (A375 (melanoma); [3]): 1230 nM
- IC50 (AsPC1 (pancreas); [4]): > 10000 nM

SMILES: COc1cc2c(cc1OC)-c1n[nH]c(NCc3cc(Cl)ccc3Cl)c1C2 [Compound 330, (2,5-Dichloro-benzyl)-(6,7-dimethoxy-2,4-dihydro-indeno[1,2-c]pyrazol-3-yl)-amine]
- inhibition at 10 µM [1]: 100%
- IC50 [1]: 16.2 nM
- IC50 (LoVo (colon)): 3700 nM
- IC50 (T47D (breast)): 355 nM
- IC50 (PC3 (prostate); [2]): 303 nM
- IC50 (A375 (melanoma); [3]): 2180 nM
- IC50 (AsPC1 (pancreas); [4]): 1550 nM

SMILES: COc1cc2c(cc1OC)-c1c(c(Nc3cccc(F)c3)nn1C(=O)CO)C2 [Compound 432, 1-[3-(3-Fluoro-phenylamino)-6,7-dimethoxy-4H-indeno[1,2-c]pyrazol-1-yl]-2-hydroxy-ethanone]
- inhibition at 10 µM [1]: 95.5%
- IC50 [1]: 38 nM
- IC50 (LoVo (colon)): 35 nM
- IC50 (T47D (breast)): 6 nM
- IC50 (PC3 (prostate); [2]): 12 nM
- IC50 (A375 (melanoma); [3]): 2 nM
- IC50 (AsPC1 (pancreas); [4]): 40 nM
